Assay results as given in PubChem BioAssay AID1963986 (Molecular Pharmacology Branch, DTP, NCI, 2024).

Test system: 171881-019-R-J1-PDC tumor spheroid viability
Assay: Anticancer human tumor 171881-019-R-J1-PDC patient-derived invasive breast carcinoma cell line growth inhibition [PI3K]
Settings: spheroids with HUVEC and MSC; for IC50: curve of first compound; for viability, T/C: stronger effect = lower value; active means viability on the fitted dose curve at most 10% of control; inactive means the rest
Description: Combinatorial screen of targeted agents with the PI3K inhibitors inavolisib, alpelisib, duvelisib, and copanlisib in multi-cell type tumor spheroids
A high-throughput screen of multi-cell type tumor spheroids was designed to identify active combinations of targeted small molecules and PI3K pathway inhibitors. Complex spheroids include a stromal component modeled by human endothelial cells (HUVEC) and fibroblasts modeled by human mesenchymal stem cells (MSCs). The concentration ranges selected for each drug and investigational agent were based upon clinically achievable concentrations if the clinical Cmax of the agent was known.
Compounds. The drugs and investigational agents: inavolisib (NSC800729), alpelisib (NSC765974), duvelisib (NSC772469), copanlisib (NSC816437), ipatasertib (NSC767898), afuresertib (NSC778305), talazoparib (NSC767125), sapanisertib (NSC764658), selumetinib (NSC741078), tovorafenib (DAY101, NSC766906), vemurafenib (NSC761431), ravoxertinib (NSC781343), sotorasib (NSC818433), MRTX1133 (NSC 836407), abemaciclib (NSC 768073), palbociclib (NSC758247), venetoclax (NSC 766270), SY5609 (NSC837396), enzalutamide (NSC755605), and darolutamide (NSC825331), were obtained from the National Cancer Institute (NCI) Developmental Therapeutics Program Chemical Repository. The FDA-approved anticancer drug set is available from the NCI Developmental Therapeutics Program. […] The stock solutions were prepared in dimethyl sulfoxide (DMSO, Sigma-Aldrich, St. Louis, MO, cat. D2650) at 800-fold the tested concentration and stored at -70 degrees C prior to their use. All drugs and investigational agents were tested over a range starting from a high concentration at or near the clinical Cmax and decreasing in half-log increments. If the clinical Cmax for an agent had not been determined, the highest concentration tested was 10 microM.
Cell Culture. All cells were maintained in an incubator at 37 degrees C and 5% CO2 with 95% humidity. The PDC lines were cultured according to standard operating procedures established by the NCI PDMR (https://pdmr.cancer.gov/sops/default.htm). All PDCs were thawed and cultured in Matrigel-coated flasks prepared with a working solution of 1X Ham's F-12 nutrient mix, without supplementation (Invitrogen, Waltham, MA, cat. 11765054), 100 U/mL penicillin-streptomycin (Invitrogen, cat. 15140122), and 2.5% Matrigel (Corning Inc., Corning, NY, cat. 354248) for the first three passages. The 354836-022-R-J1-PDC, 475296-252-R-J1-PDC, and 997726-040-R-J2-PDC lines were cultured in 6A media, which includes advanced DMEM/F-12 (Thermo Fisher Scientific, cat. 12634028), 10 mM HEPES (Thermo Fisher Scientific, cat. 15630080), 1X GlutaMAX supplement (Thermo Fisher Scientific, cat. 35050061), 0.1 mg/mL primocin (InvivoGen, San Diego, CA, cat. ant-pm-2), 10% defined fetal bovine serum, heat inactivated (HyClone Laboratories Inc., Logan, UT, cat. SH30070.03HI), 50% L-WRN conditioned media (ATCC, cat. CRL-3276), 1.25 mM N-Acetyl-L-cysteine (Sigma-Aldrich, cat. A9165), 10 mM nicotinamide (Sigma-Aldrich, cat. N0636), 1X B-27 supplement (Thermo Fisher Scientific, cat. 17504044), 1X N-2 supplement (Thermo Fisher Scientific, cat. 17502048), and 10 microM Y-27632 dihydrochloride (Tocris Bioscience, Bristol, United Kingdom, cat. 1254). The 624824-186-R-J2-PDC line was cultured in 6C/Colon 1B media, which includes all 6A media components plus 50 ng/mL human EGF recombinant protein (Thermo Fisher Scientific, cat. PHG0311). […]

[1] = second compound 0.0316 µM, first compound 0.0316 µM
[2] = second compound 0.0316 µM, first compound 0.1 µM
[3] = second compound 0.0316 µM, first compound 0.316 µM
[4] = second compound 0.0316 µM, first compound 1 µM
[5] = second compound 0.0316 µM, first compound 3.16 µM
[6] = second compound 0.0316 µM, first compound 10 µM
[7] = second compound 0.1 µM, first compound 0.0316 µM
[8] = second compound 0.1 µM, first compound 0.1 µM
[9] = second compound 0.1 µM, first compound 0.316 µM
[10] = second compound 0.1 µM, first compound 1 µM
[11] = second compound 0.1 µM, first compound 3.16 µM
[12] = second compound 0.1 µM, first compound 10 µM
[13] = second compound 0.316 µM, first compound 0.0316 µM
[14] = second compound 0.316 µM, first compound 0.1 µM
[15] = second compound 0.316 µM, first compound 0.316 µM
[16] = second compound 0.316 µM, first compound 1 µM
[17] = second compound 0.316 µM, first compound 3.16 µM
[18] = second compound 0.316 µM, first compound 10 µM
[19] = second compound 1 µM, first compound 0.0316 µM
[20] = second compound 1 µM, first compound 0.1 µM
[21] = second compound 1 µM, first compound 0.316 µM
[22] = second compound 1 µM, first compound 1 µM
[23] = second compound 1 µM, first compound 3.16 µM
[24] = second compound 1 µM, first compound 10 µM
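Further: spheroids exposed to compound for 7 days before viability read.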
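Wherever viability, T/C is given: 100% = DMSO vehicle-treated spheroids.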

C=CC(=O)N1CCN(c2nc(=O)n(-c3c(C)ccnc3C(C)C)c3nc(-c4c(O)cccc4F)c(F)cc23)C(C)C1 (centres undefined) + CC(Nc1ncnc2nc[nH]c12)c1cc2cccc(Cl)c2c(=O)n1-c1ccccc1
> 10 µM: IC50 (second compound 0.0316 µM) | IC50 (second compound 0.1 µM) | IC50 (second compound 0.316 µM) | IC50 (second compound 1 µM)
inactive: viability, T/C [1] 95.3% | viability, T/C [2] 94.3% | viability, T/C [3] 94.6% | viability, T/C [4] 94.3% | viability, T/C [5] 106% | viability, T/C [6] 58.9% | viability, T/C [7] 104% | viability, T/C [8] 88.7% | viability, T/C [9] 87.2% | viability, T/C [10] 84.1% | viability, T/C [11] 108% | viability, T/C [12] 57.6% | viability, T/C [13] 108% | viability, T/C [14] 103% | viability, T/C [15] 98.9% | viability, T/C [16] 112% | viability, T/C [17] 105% | viability, T/C [18] 61% | viability, T/C [19] 101% | viability, T/C [20] 105% | viability, T/C [21] 106% | viability, T/C [22] 112% | viability, T/C [23] 99.4% | viability, T/C [24] 53.4% | viability, T/C (second compound 3.16 µM, first compound 0.0316 µM) 96.3% | viability, T/C (second compound 3.16 µM, first compound 0.1 µM) 88.3% | viability, T/C (second compound 3.16 µM, first compound 0.316 µM) 90.6% | viability, T/C (second compound 3.16 µM, first compound 1 µM) 93.1% | viability, T/C (second compound 3.16 µM, first compound 3.16 µM) 88.2% | viability, T/C (second compound 3.16 µM, first compound 10 µM) 46.6% | viability, T/C (second compound 10 µM, first compound 0.0316 µM) 63.9% | viability, T/C (second compound 10 µM, first compound 0.1 µM) 60.9% | viability, T/C (second compound 10 µM, first compound 0.316 µM) 65.6% | viability, T/C (second compound 10 µM, first compound 1 µM) 68.6% | viability, T/C (second compound 10 µM, first compound 3.16 µM) 64.5% | viability, T/C (second compound 10 µM, first compound 10 µM) 32%
9.1 µM: IC50 (second compound 3.16 µM)
5.29 µM: IC50 (second compound 10 µM)

CC(C)NCC(C(=O)N1CCN(c2ncnc3c2C(C)CC3O)CC1)c1ccc(Cl)cc1 (centres undefined) + CC(Nc1ccc2c(c1)OCCn1cc(N3C(=O)OCC3C(F)F)nc1-2)C(N)=O
< 0.0316 µM: IC50 (second compound 0.1 µM) | IC50 (second compound 0.316 µM) | IC50 (second compound 1 µM)
0.275 µM: IC50 (second compound 0.01 µM)
inactive: viability, T/C (second compound 0.00316 µM, first compound 0.0316 µM) 84% | viability, T/C (second compound 0.00316 µM, first compound 0.1 µM) 70% | viability, T/C (second compound 0.00316 µM, first compound 0.316 µM) 50.4% | viability, T/C (second compound 0.00316 µM, first compound 1 µM) 26.5% | viability, T/C (second compound 0.00316 µM, first compound 3.16 µM) 13.8% | viability, T/C (second compound 0.01 µM, first compound 0.0316 µM) 64.8% | viability, T/C (second compound 0.01 µM, first compound 0.1 µM) 69% | viability, T/C (second compound 0.01 µM, first compound 0.316 µM) 45.6% | viability, T/C (second compound 0.01 µM, first compound 1 µM) 24.4% | viability, T/C (second compound 0.01 µM, first compound 3.16 µM) 13.4% | viability, T/C (second compound 0.01 µM, first compound 10 µM) 9.59% | viability, T/C [1] 52% | viability, T/C [2] 48.9% | viability, T/C [3] 38.6% | viability, T/C [4] 22.3% | viability, T/C [5] 12.2% | viability, T/C [7] 35.4% | viability, T/C [8] 35.5% | viability, T/C [9] 31.3% | viability, T/C [10] 19.5% | viability, T/C [11] 11.7% | viability, T/C [13] 27.1% | viability, T/C [14] 23.8% | viability, T/C [15] 23.5% | viability, T/C [16] 16.4% | viability, T/C [17] 10.8% | viability, T/C [19] 20.5% | viability, T/C [20] 20% | viability, T/C [21] 19.1% | viability, T/C [22] 13.5% | viability, T/C [23] 9.24%
active: viability, T/C (second compound 0.00316 µM, first compound 10 µM) 9.57% | viability, T/C [6] 8.08% | viability, T/C [12] 7.31% | viability, T/C [18] 7.4% | viability, T/C [24] 7.07%
0.0655 µM: IC50 (second compound 0.0316 µM)
0.304 µM: IC50 (second compound 0.00316 µM)
